Laboratory results as given in publication PMC8958511, “Development of Sulfamoylated 4-(1-Phenyl-1H-1,2,3-triazol-4-yl)phenol Derivatives as Potent Steroid Sulfatase Inhibitors for Efficient Treatment of Breast Cancer” (Journal of Medicinal Chemistry, 2022).
Read-outs that look alike come from different tables or passages of the source.

What was measured:
[1] = target: T1, STS isolated from the human placenta (Homo sapiens, UniProt P08842); assay: radioisotope enzymatic assay with STS isolated from human placenta and [3H]E1S; format: biochemical; details: 0.5 μM inhibitor concentration, substrate [3H]E1S, 3 nM, triplicate; for remaining activity at 0.5 µM: read-out: residual STS activity [%]
T1 construct: radioisotope enzymatic assay using STS isolated from the human placenta; from tissue; host or cells: human placenta
T1 sequence (P08842 22-583): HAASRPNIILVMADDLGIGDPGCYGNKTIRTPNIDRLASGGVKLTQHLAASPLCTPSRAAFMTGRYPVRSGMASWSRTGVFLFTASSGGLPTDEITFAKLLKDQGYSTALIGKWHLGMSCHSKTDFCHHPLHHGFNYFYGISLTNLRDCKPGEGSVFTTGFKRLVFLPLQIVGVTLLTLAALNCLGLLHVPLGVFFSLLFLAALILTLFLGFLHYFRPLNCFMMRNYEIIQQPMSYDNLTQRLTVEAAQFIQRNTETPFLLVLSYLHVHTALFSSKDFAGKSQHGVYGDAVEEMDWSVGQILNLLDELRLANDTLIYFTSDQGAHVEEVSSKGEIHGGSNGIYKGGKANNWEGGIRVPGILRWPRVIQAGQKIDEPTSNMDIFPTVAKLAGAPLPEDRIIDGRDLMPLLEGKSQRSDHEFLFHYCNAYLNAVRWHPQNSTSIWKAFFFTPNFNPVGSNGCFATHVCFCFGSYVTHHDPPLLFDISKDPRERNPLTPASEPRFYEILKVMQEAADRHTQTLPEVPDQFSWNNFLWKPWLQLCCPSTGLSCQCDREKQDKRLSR
Method: The inhibitory potency of the synthesized compounds was examined in two ways, including an enzymatic assay and the radioisotope cellular test. The enzymatic assay was performed using the STS enzyme isolated from human placenta and using radiolabeled [^3H]E1S as a substrate.
The total volume of the reaction mixture was 100 μL. […] After incubation, the reaction mixture (90 μL) was collected from each well, and the product formed by STS hydrolysis was extracted with toluene (0.5 mL). STS activity was measured using a MicroBeta radioluminometer (PerkinElmer). Enzymatic assays were carried out in triplicate.

STS in MCF-7 cells = target: T2, STS in MCF-7 cells (Homo sapiens, UniProt P08842); assay: radioisotope cellular assay with [3H]E1S in MCF-7 cells; format: cell-based; details: for remaining activity at 0.001 µM / remaining activity at 0.01 µM / remaining activity at 0.1 µM: MCF7, 20 h; for remaining activity at 0.001 µM: read-out: residual STS activity [%] 1 nM; for remaining activity at 0.01 µM: read-out: residual STS activity [%] 10 nM; for remaining activity at 0.1 µM: read-out: residual STS activity [%] 100 nM
T2 construct: The radioisotope cellular assay was performed using the MCF-7 cell line; endogenous in cells; host or cells: MCF-7
T2 sequence (P08842 22-583): T1 sequence (P08842 22-583)
Method: All compounds were initially tested for their in cell inhibitory action at a 100 nM concentration.
The inhibitory potency of the synthesized compounds was examined in two ways, including an enzymatic assay and the radioisotope cellular test. […] The radioisotope cellular assay was performed using the MCF-7 cell line in the presence of radiolabeled [^3H]E1S.
The evaluation of the inhibitory effect of each compound with breast cancer cells was performed using a previously described method (27) with some modifications. MCF-7 cells were maintained in Dulbecco’s modified Eagle medium supplemented with 10% fetal bovine serum and cultured in the above medium until 80% confluence. […] After incubation, the medium (0.45 mL) was collected from each well, and the product formed by STS hydrolysis was extracted with toluene (4 mL). STS activity was measured using a MicroBeta radioluminometer (PerkinElmer). Assays with MCF-7 cells were carried out in triplicate.

[2] = format: in vivo; details: Table S1, MTD study, 50 mg/kg
Method: The mice were thus weighed, and their general health was observed. […] At the end of the study, the mice were sacrificed by dislocation of the cervical vertebrae, and the internal organs were examined macroscopically.
The mice were weighed, and their general health was observed. […] At the end of the MTD study, the autopsy was performed, and the internal organs (liver, kidney, and spleen) were weighed and macroscopically assessed.

[3] = system: 67NR mouse mammary tumor cells; assay: antitumor activity in 67NR orthotopic mouse breast carcinoma model; format: in vivo, BALB/c mice; details: 50 mg/kg b.w. per os
Method: The tumor volume (TV) and body weight were measured three times a week. Results for individual groups are reported in Figure S5, Supporting Information. Based on TV data, the tumor growth inhibition (TGI) was calculated for groups that received compounds and compared to that of the control group. […] The body weight of the treated animals was monitored during the study, and the body weight change (BWC) index was calculated (Figure 4). […] Body weight loss was observed between D2 and D11 and reached 4.5% at most.
The growth of tumors has been observed.

[4] = blood morphology, blood biochemistry and organ weights of mice with 67NR tumor
Method: At the end of the study, the autopsy of the animals was performed: blood was collected for further analyses of the morphology (Table S2, Supporting Information) and biochemistry (Table S3 and Figure S6, Supporting Information) and for the determination of the plasma estradiol level using the ELISA method.
Mice were injected orthotopically (in the mammary gland fat pad) with 67NR mouse mammary tumor cells derived from in vitro culture (1.5 × 10^5 cells/0.05 mL Hanks fluid/mouse). The growth of tumors has been observed. […] Animals were observed during the next 17 days and euthanized. During observation, body weight and tumor growth were monitored three times a week. The volume of the tumors was calculated according to the following formula: TV = a^2·b/2 [mm^3], (where: a—width and b—length of the tumor). Blood, tumor tissue, and liver were harvested during autopsy for further analyses. Blood aliquots (about 500 μL) were collected in EDTA containing vials for morphology analysis (Mythic 18 analyzer, Orphee), and then, the plasma was collected (centrifuged at 2500g for 15 min at 4 °C within 1 h after collection) for biochemical parameter analysis (Cobas c111, Roche).

[5] = MCF-7 cells, 1 nM inhibitor, substrate [3H]E1S, 3 nM, triplicate
[6] = MCF-7 cells, 10 nM inhibitor, substrate [3H]E1S, 3 nM, triplicate
[7] = MCF-7 cells, 100 nM inhibitor, substrate [3H]E1S, 3 nM, triplicate
[8] = Table S2, mice with 67NR tumor, 50 mg/kg
[9] = Table S3, plasma, mice with 67NR tumor, 50 mg/kg per os, N=9

SMILES: NS(=O)(=O)Oc1ccc(-c2cn(-c3cccc(Br)c3)nn2)cc1 [4c, 4-(1-(3-Bromophenyl)-1H-1,2,3-triazol-4-yl)phenyl Sulfamate]
- remaining activity at 0.5 µM [1]: 24.1 ± 1.2%
- melting point: 212 to 213 °C (dec.)
- remaining activity at 0.001 µM (STS in MCF-7 cells; [5]): 79.4 ± 4.76%
- remaining activity at 0.01 µM (STS in MCF-7 cells; [6]): 39.9 ± 2.19%
- remaining activity at 0.1 µM (STS in MCF-7 cells; [7]): 2.1 ± 0.07%

SMILES: NS(=O)(=O)Oc1ccc(-c2cn(-c3cccc(I)c3)nn2)cc1 [4d, 4-(1-(3-Iodophenyl)-1H-1,2,3-triazol-4-yl)phenyl Sulfamate]
- residual STS activity [%] [1]: 13.23 ± 0.66%
- remaining activity at 0.5 µM [1]: 13.2%
- melting point: 228 to 229 °C (dec.)
- remaining activity at 0.001 µM (STS in MCF-7 cells; [5]): 67.5 ± 3.71%
- remaining activity at 0.01 µM (STS in MCF-7 cells; [6]): 31.8 ± 1.59%
- remaining activity at 0.1 µM (STS in MCF-7 cells; [7]): 2 ± 0.11%

SMILES: Cc1cccc(-n2cc(-c3ccc(OS(N)(=O)=O)cc3)nn2)c1 [4e, 4-(1-(3-Methylphenyl)-1H-1,2,3-triazol-4-yl)phenyl Sulfamate]
- remaining activity at 0.5 µM [1]: 34.2 ± 1.71%
- melting point: 212 to 213 °C (dec.)
- remaining activity at 0.1 µM (STS in MCF-7 cells; [7]): 3.1 ± 0.12%

SMILES: Cc1cc(C)cc(-n2cc(-c3ccc(OS(N)(=O)=O)cc3)nn2)c1 [4f, 4-(1-(3,5-Dimethylphenyl)-1H-1,2,3-triazol-4-yl)phenyl Sulfamate]
- remaining activity at 0.5 µM [1]: 52.5 ± 2.62%
- remaining activity at 0.1 µM (STS in MCF-7 cells; [7]): 10.2 ± 0.61%

SMILES: COc1cccc(-n2cc(-c3ccc(OS(N)(=O)=O)cc3)nn2)c1 [4g, 4-(1-(3-Methoxyphenyl)-1H-1,2,3-triazol-4-yl)phenyl Sulfamate]
- remaining activity at 0.5 µM [1]: 43.4 ± 2.17%
- melting point: 210 to 212 °C (dec.)
- remaining activity at 0.1 µM (STS in MCF-7 cells; [7]): 6.8 ± 0.24%

SMILES: COc1cc(OC)cc(-n2cc(-c3ccc(OS(N)(=O)=O)cc3)nn2)c1 [4h, 4-(1-(3,5-Dimethoxyphenyl)-1H-1,2,3-triazol-4-yl)phenyl Sulfamate]
- remaining activity at 0.5 µM [1]: 55.1 ± 2.76%
- melting point: 225 to 227 °C (dec.)
- remaining activity at 0.1 µM (STS in MCF-7 cells; [7]): 34.3 ± 1.88%

SMILES: CCc1cccc(-n2cc(-c3ccc(OS(N)(=O)=O)cc3)nn2)c1 [4i, 4-(1-(3-Ethylphenyl)-1H-1,2,3-triazol-4-yl)phenyl Sulfamate]
- remaining activity at 0.5 µM [1]: 14.5 ± 0.73%
- melting point: 223 to 225 °C (dec.)
- remaining activity at 0.1 µM (STS in MCF-7 cells; [7]): 2.6 ± 0.08%

SMILES: CC(C)c1cccc(-n2cc(-c3ccc(OS(N)(=O)=O)cc3)nn2)c1 [4j, 4-(1-(3-Isopropylphenyl)-1H-1,2,3-triazol-4-yl)phenyl Sulfamate]
- remaining activity at 0.5 µM [1]: 18.1 ± 0.9%
- melting point: 202 to 204 °C (dec.)
- remaining activity at 0.01 µM (STS in MCF-7 cells; [6]): 73.4%
- remaining activity at 0.1 µM (STS in MCF-7 cells; [7]): 2.4 ± 0.12%

SMILES: NS(=O)(=O)Oc1ccc(-c2cn(-c3cccc([N+](=O)[O-])c3)nn2)cc1 [4k, 4-(1-(3-Nitrophenyl)-1H-1,2,3-triazol-4-yl)phenyl Sulfamate]
- remaining activity at 0.5 µM [1]: 28.9 ± 1.44%
- melting point: 225 to 226 °C (dec.)
- remaining activity at 0.1 µM (STS in MCF-7 cells; [7]): 5.9 ± 0.32%

SMILES: NS(=O)(=O)Oc1ccc(-c2cn(-c3cc(Br)cc(Br)c3)nn2)cc1 [4l, 4-(1-(3,5-Dibromophenyl)-1H-1,2,3-triazol-4-yl)phenyl Sulfamate]
- remaining activity at 0.5 µM [1]: 28.9 ± 1.44%
- melting point: 228 to 229 °C (dec.)
- remaining activity at 0.1 µM (STS in MCF-7 cells; [7]): 8.3 ± 0.4%

SMILES: NS(=O)(=O)Oc1ccc(-c2cn(-c3cc(I)cc(I)c3)nn2)cc1 [4m, 4-(1-(3,5-Diiodophenyl)-1H-1,2,3-triazol-4-yl)phenyl Sulfamate]
- residual STS activity [%] [1]: 11.78 ± 0.59%
- remaining activity at 0.5 µM [1]: 11.8%
- melting point: 213 to 216 °C (dec.)
- remaining activity at 0.1 µM (STS in MCF-7 cells; [7]): 18.7%

SMILES: NS(=O)(=O)Oc1ccc(-c2cn(-c3ccc(F)cc3)nn2)cc1 [5a]
- remaining activity at 0.01 µM (STS in MCF-7 cells; [6]): 60.2 ± 2.7%
- remaining activity at 0.1 µM (STS in MCF-7 cells; [7]): 1.5 ± 0.05%

SMILES: NS(=O)(=O)Oc1ccc(-c2cn(-c3ccccc3)nn2)cc1 [5b]
- remaining activity at 0.01 µM (STS in MCF-7 cells; [6]): 46.6 ± 1.63%
- remaining activity at 0.1 µM (STS in MCF-7 cells; [7]): 1.5 ± 0.05%

SMILES: NS(=O)(=O)Oc1ccc(-c2cn(-c3ccccc3C(F)(F)F)nn2)cc1 [5c]
- remaining activity at 0.1 µM (STS in MCF-7 cells; [7]): 5.5 ± 0.3%

SMILES: NS(=O)(=O)Oc1ccc(-c2cn(-c3cc(C(F)(F)F)cc(C(F)(F)F)c3)nn2)cc1 [5d]
- remaining activity at 0.1 µM (STS in MCF-7 cells; [7]): 14.7 ± 0.88%

SMILES: NS(=O)(=O)Oc1ccc(-c2cn(-c3ccc(F)c(F)c3F)nn2)cc1 [5e]
- GRAN [2]: 11,1±1,9%
- HCT [2]: 42,3±1,3%
- HGB [2]: 15,7±0,5 g/dL
- LIMF [2]: 85,6±2,6%
- MCH [2]: 17,1±0,2 pg
- MCHC [2]: 37,2±0,7 g/dL
- MCV [2]: 46±0,5 fL
- MON [2]: 3,3±1%
- PLT [2]: 511±30 10x3/uL
- RBC [2]: 9,2±0,4 10x6/uL
- RDW [2]: 17,6±0,7%
- WBC [2]: 4,0±0,4 10x3/uL
- body weight of treated tumor-bearing mice (observation) [3]: An increase in body weight was observed
- tumor growth inhibition (TGI) ([3]; 5 days a week, 67NR tumor, N = 9, vs control group): did not show any significant effect
- mice responded to the treatment ([3]; nine mice/group): 6 mice poorly responded to the treatment
- mice with much larger tumor than the mean control volume ([3]; nine mice/group): 2 mice
- mice with tumor volume reduced by approx. 50% compared to the TV control ([3]; nine mice/group): 1 mice
- HCT [4, 8]: 34,6±1,6%
- HGB [4, 8]: 13,4±0,6 g/dL
- MCH [4, 8]: 18,2±0,4 pg
- MCHC [4, 8]: 38,6±0,5 g/dL
- MCV [4, 8]: 47±1,2 fL
- MPV [4, 8]: 4,9±0,1 fL
- PCT [4, 8]: 0,280±0,04%
- PDW [4, 8]: 25,6±3,8 fL
- RBC [4, 8]: 7,4±0,4 x106/uL
- RDW [4, 8]: 19,2±1,2%
- WBC [4, 8]: 6,1±2,1 x103/uL
- ALT [4, 9]: 31,1±10,7 U/L
- AST [4, 9]: 97,4±24,9 U/L
- creatinine [4, 9]: 5,33±1,21 umol/L
- urea [4, 9]: 7,65±0,54 mmol/L
- remaining activity at 0.001 µM (STS in MCF-7 cells): 38.9%
- remaining activity at 0.01 µM (STS in MCF-7 cells): 24.2 ± 1.45%
- remaining activity at 0.1 µM (STS in MCF-7 cells): 1 ± 0.04%
- IC50 (STS in MCF-7 cells; MCF-7 cells, substrate [3H]E1S, 3 nM): 2.95 ± 0.13 nM

SMILES: NS(=O)(=O)Oc1ccc(-c2cn(-c3ccc(F)c(F)c3)nn2)cc1 [5f]
- remaining activity at 0.1 µM (STS in MCF-7 cells; [7]): 3 ± 0.14%

SMILES: NS(=O)(=O)Oc1ccc(-c2cn(-c3ccc(F)cc3C(F)(F)F)nn2)cc1 [5h]
- remaining activity at 0.01 µM (STS in MCF-7 cells; [6]): 48.2 ± 3.37%

SMILES: NS(=O)(=O)Oc1ccc(-c2cn(-c3ccc(OC(F)(F)F)cc3)nn2)cc1 [5i]
- remaining activity at 0.001 µM (STS in MCF-7 cells; [5]): 71.8 ± 4.67%
- remaining activity at 0.01 µM (STS in MCF-7 cells; [6]): 9.5 ± 0.48%
- remaining activity at 0.1 µM (STS in MCF-7 cells; [7]): 1%
- residual STS activity [%] 100 nM (STS in MCF-7 cells; [7]): 1.0%

SMILES: NS(=O)(=O)Oc1ccc(-c2cn(-c3ccc(C(F)(F)F)cc3)nn2)cc1 [5j]
- remaining activity at 0.1 µM (STS in MCF-7 cells; [7]): < 5%

SMILES: NS(=O)(=O)Oc1ccc(-c2cn(-c3ccccc3OC(F)(F)F)nn2)cc1 [5k]
- remaining activity at 0.1 µM (STS in MCF-7 cells; [7]): 15.5 ± 0.93%

SMILES: NS(=O)(=O)Oc1ccc(-c2cn(-c3cccc(C(F)(F)F)c3)nn2)cc1 [5m]
- remaining activity at 0.01 µM (STS in MCF-7 cells; [6]): 59.9 ± 3.29%

SMILES: Cc1cc(=O)oc2cc(OS(N)(=O)=O)ccc12 [COUMATE, reference compound]
- remaining activity at 0.1 µM (STS in MCF-7 cells): 51.8%
